Source: patent publication US8980944B2 (Gemmus Pharma Inc., priority 2006, dated 2015)
Several values for one entry are separate records, joined by “and”; a condition that tells them apart may be missing. Equal values may be shown once.

Experiments:
[1] = Study A: tolerance and pharmacokinetics in volunteers after single oral dose; conditions: human, in vivo
IL-2 = experiment: Anti-CD3/CD28-stimulated human CD8 cells, IL-2 release (multi-cytokine bead immunoassay)
IL-12 = experiment: LPS-stimulated human monocyte-derived dendritic cells, IL-12 release (ELISA); conditions: LPS stimulation
TNFα [2] = experiment: ConA-stimulated human peripheral blood lymphocytes, TNFα release (ELISA); conditions: human T cells, ConA stimulation
GM-CSF = experiment: Anti-CD3/CD28-stimulated human CD8 cells, GM-CSF release (multi-cytokine bead immunoassay); conditions: 1 μM Nileprost, Anti-CD3/CD28 stimulation, individual donors 1-4
clinical = conditions: human, in vivo, po
IFN-γ [3] = experiment: ConA-stimulated human peripheral blood lymphocytes, IFN-γ release (ELISA); conditions: for Percent inhibition of IFN-γ compared to uninhibited control: human T cells, ConA stimulation
IFN-γ [4] = experiment: Anti-CD3/CD28-stimulated human CD8 cells, IFN-γ release (multi-cytokine bead immunoassay)
TNFα [5] = experiment: Poly(I:C)-stimulated human monocyte-derived dendritic cells, TNFα release (ELISA); type: cell-based; conditions: one micromolar; for TNFα percent inhibition from untreated control: Poly IC-stimulated monocyte-derived dendritic cells, 18 hours

## CCCCC(C)[C@H](O)/C=C/[C@@H]1[C@H]2C/C(=C(\C#N)CCCC(=O)O)O[C@H]2C[C@H]1O (stereo partly drawn) [Nileprost]
[1]; 32 ug
  Cmax: 0.84 ng/mL and 2.1 nM
[1]; 65 ug
  Cmax: 0.929 ng/mL and 2.3 nM
IL-2; 1 μM Nileprost, Anti-CD3/CD28 stimulation, individual donors 1-4
  Percent inhibition of IL-2 compared to uninhibited control: 70%
IL-2; Homo sapiens, read-out: Percent inhibition of IL-2 compared to uninhibited control, 1 μM Nileprost, Anti-CD3/CD28 stimulation, individual donors 1-4
  inhibition at 1 µM: 71%
IL-12
  inhibitory activity in human monocyte-derived dendritic cell (DC) cytokine release: very high inhibitory activity
TNFα [2]; Homo sapiens, T-cell, read-out: Percent inhibition of TNF compared to uninhibited control, Nileprost 1 nM, individual donors 3-4
  inhibition at 0.001 µM: 24%
TNFα [2]; Homo sapiens, T-cell, read-out: Percent inhibition of TNF compared to uninhibited control, Nileprost 2.5 nM, individual donors 1-2
  inhibition at 0.0025 µM: 24%
TNFα [2]; Homo sapiens, T-cell, read-out: Percent inhibition of TNF compared to uninhibited control, Nileprost 3 nM, individual donors 3-4
  inhibition at 0.003 µM: 28%
TNFα [2]; Homo sapiens, T-cell, read-out: Percent inhibition of TNF compared to uninhibited control, Nileprost 5 nM, individual donors 1-2
  inhibition at 0.005 µM: 47%
TNFα [2]; Homo sapiens, T-cell, read-out: Percent inhibition of TNF compared to uninhibited control, Nileprost 9 nM, individual donors 3-4
  inhibition at 0.009 µM: 53%
TNFα [2]; Homo sapiens, T-cell, read-out: Percent inhibition of TNF compared to uninhibited control, Nileprost 10 nM, individual donors 1-2
  inhibition at 0.01 µM: 46%
TNFα [2]; Homo sapiens, T-cell, read-out: Percent inhibition of TNF compared to uninhibited control, Nileprost 20 nM, individual donors 1-2
  inhibition at 0.02 µM: 50%
TNFα [2]; Homo sapiens, T-cell, read-out: Percent inhibition of TNF compared to uninhibited control, Nileprost 83 nM, individual donors 3-4
  inhibition at 0.083 µM: 61%
TNFα [2]; Nileprost 0.04 nM, individual donors 3-4
  Percent inhibition of TNF compared to uninhibited control: 1% and 11%
TNFα [2]; Nileprost 0.11 nM, individual donors 3-4
  Percent inhibition of TNF compared to uninhibited control: 4% and 16%
TNFα [2]; Nileprost 0.5 nM, individual donors 1-2
  Percent inhibition of TNF compared to uninhibited control: 7% and 1%
TNFα [2]; Nileprost 1 nM, individual donors 3-4
  Percent inhibition of TNF compared to uninhibited control: 37%
TNFα [2]; Nileprost 1.25 nM, individual donors 1-2
  Percent inhibition of TNF compared to uninhibited control: 14% and 5%
TNFα [2]; Nileprost 2.5 nM, individual donors 1-2
  Percent inhibition of TNF compared to uninhibited control: 19%
TNFα [2]; Nileprost 3 nM, individual donors 3-4
  Percent inhibition of TNF compared to uninhibited control: 48%
TNFα [2]; Nileprost 5 nM, individual donors 1-2
  Percent inhibition of TNF compared to uninhibited control: 36%
TNFα [2]; Nileprost 9 nM, individual donors 3-4
  Percent inhibition of TNF compared to uninhibited control: 67%
TNFα [2]; Nileprost 10 nM, individual donors 1-2
  Percent inhibition of TNF compared to uninhibited control: 49%
TNFα [2]; Nileprost 83 nM, individual donors 3-4
  Percent inhibition of TNF compared to uninhibited control: 76%
TNFα [2]; Nileprost 250 nM, individual donors 3-4
  Percent inhibition of TNF compared to uninhibited control: 49% and 76%
GM-CSF
  Percent inhibition of GM-CSF compared to uninhibited control: 65% and 61%
clinical; 50 ug
  Cmax: 0.566 ng/mL and 1.4 nM
clinical; 75 ug
  Cmax: 0.869 ng/mL and 2.2 nM
clinical; 112 ug
  Cmax: 0.803 ng/mL and 2 nM
clinical; 170 ug
  Cmax: 0.954 ng/mL and 2.4 nM
clinical; 255 ug
  Cmax: 1.71 ng/mL and 4.3 nM
clinical; 375 ug
  Cmax: 1.72 ng/mL and 4.3 nM
IFN-γ [3]; Nileprost 0.04 nM, individual donors 5-8
  Percent inhibition of IFN-γ compared to uninhibited control: 16% and 7% and 9% and 27%
IFN-γ [3]; Nileprost 0.11 nM, individual donors 5-8
  Percent inhibition of IFN-γ compared to uninhibited control: 22% and 16% and 34%
IFN-γ [3]; Nileprost 1 nM, individual donors 5-8
  Percent inhibition of IFN-γ compared to uninhibited control: 43% and 32% and 24% and 51%
IFN-γ [3]; Nileprost 1.25 nM, individual donors 1-4
  Percent inhibition of IFN-γ compared to uninhibited control: 11%
IFN-γ [3]; Nileprost 2.5 nM, individual donors 1-4
  Percent inhibition of IFN-γ compared to uninhibited control: 43%
IFN-γ [3]; Nileprost 3 nM, individual donors 5-8
  Percent inhibition of IFN-γ compared to uninhibited control: 56% and 46% and 22% and 71%
IFN-γ [3]; Nileprost 5 nM, individual donors 1-4
  Percent inhibition of IFN-γ compared to uninhibited control: 48% and 56%
IFN-γ [3]; Nileprost 9 nM, individual donors 5-8
  Percent inhibition of IFN-γ compared to uninhibited control: 59% and 60% and 48% and 73%
IFN-γ [3]; Nileprost 10 nM, individual donors 1-4
  Percent inhibition of IFN-γ compared to uninhibited control: 43%
IFN-γ [3]; Nileprost 20 nM, individual donors 1-4
  Percent inhibition of IFN-γ compared to uninhibited control: 56% and 67%
IFN-γ [3]; Nileprost 83 nM, individual donors 5-8
  Percent inhibition of IFN-γ compared to uninhibited control: 57% and 60% and 65% and 85%
IFN-γ [3]; Nileprost 250 nM, individual donors 5-8
  Percent inhibition of IFN-γ compared to uninhibited control: 59% and 76% and 57% and 83%
IFN-γ [3]; dose responsively, ConA-stimulated human lymphocytes
  inhibitory activity in the T lymphocyte Th-1 cytokine release: very high inhibitory activity
IFN-γ [4]; 1 μM Nileprost, human CD8 cells, Anti-CD3/CD28 stimulation, individual donors 1-4
  Percent inhibition of IFN-γ compared to uninhibited control: 59% and 80%
IFN-γ [4]; IFN-γ, GM-CSF and IL-2, anti-CD3/CD28 stimulation
  inhibitory activity in the cytotoxic CD8+ lymphocyte cytokine release: very high inhibitory activity
TNFα [5]; Donor 1
  TNFα percent inhibition from untreated control: 89%
TNFα [5]; Donor 2
  TNFα percent inhibition from untreated control: 45%
TNFα [5]; Donor 3
  TNFα percent inhibition from untreated control: 74%
TNFα [5]; monocyte-derived dendritic cells
  Poly(I:C)-induced TNFα: significant decrease
